Consider 55 molecules from ChEMBL document CHEMBL3862024, “2-Phenylbenzo[b]furans: Synthesis and promoting activity on estrogen biosynthesis” (Bioorg Med Chem Lett, 2016).

What is called pEC50 is the negative decadic logarithm of the EC50, by convention in mol/L.

Data set [1] can be described thus: Cytotoxicity against aromatase overexpressing HEK293A cells assessed as effect on cell proliferation at 10 to 50 uM. In kind it is toxicity, cell-based. To be noted: human, hek293-a.
Data set [2] can be described thus: Induction of estrogen biosynthesis in aromatase overexpressing HEK293A cells assessed as increase in 17beta-estradiol levels preincubated for 24 hrs followed by testosterone addition measured after 24 hrs by magnetic particle-based ELISA. In kind it is functional, cell-based. To be noted: Homo sapiens, HEK293-A.
The nature of data set [3]: Induction of estrogen biosynthesis in aromatase overexpressing HEK293A cells assessed as increase in 17beta-estradiol levels at 50 uM preincubated for 24 hrs followed by testosterone addition measured after 24 hrs by magnetic particle-based ELISA relative to egonol gentiobioside. In kind it is functional, Homo sapiens, HEK293-A. (In an ELISA, binding on a coated surface is turned into a signal by an enzyme label.)

pEC50: −log10 of the molar value.

As to `COc1cc(-c2cc3cc(Br)cc(OC)c3o2)ccc1O`, in data set [1], the Activity entry is on record as “Non-Toxic”. As for `COc1cc(Cl)cc2cc(-c3ccc(F)cc3)oc12`, the negative-log EC50 (pEC50) in data set [2] was 4.70. The “fold change (FC)” value in data set [3] is given as greater than 0.6. For the same molecule, in data set [1], the Activity result is listed as “Non-Toxic”.

In the case of `COc1cc(CCC=O)cc2cc(-c3ccc4c(c3)OCO4)oc12`, in data set [1], the Activity result is recorded as “Non-Toxic”. Turning to `COc1cc(CCCO)c(Br)c2cc(-c3ccc4c(c3)OCO4)oc12`, the pEC50 in data set [2] is 4.66. Further, the “fold change (FC)” value in data set [3] is reported as greater than 0.6. Further, the Activity result in data set [1] is reported as “Non-Toxic”. Turning to `COc1cc(Br)cc2cc(-c3ccc4c(c3)OCO4)oc12`, the Activity entry in data set [1] is recorded as “Non-Toxic”. For the molecule `Fc1ccc(-c2cc3ccccc3o2)cc1`, the pEC50 in data set [2] was 4.60. Besides, in data set [3], the “fold change (FC)” value was greater than 0.6. In addition, the Activity entry in data set [1] was “Non-Toxic”.

For `C=CC(=O)OCCCc1cc(OC)c2oc(-c3ccc4c(c3)OCO4)cc2c1`, the Activity result in data set [1] was “Non-Toxic”. Consider `COc1ccc(-c2cc3cc(Cl)ccc3o2)cc1`, for which the Activity entry in data set [1] is reported as “Non-Toxic”.

On to `COc1cccc(-c2cc3ccccc3o2)c1`, for which the pEC50 in data set [2] is 4.68. The “fold change (FC)” value in data set [3] is recorded as greater than 0.6. Also, in data set [1], the Activity entry is “Non-Toxic”.

Take `COc1ccc(-c2cc3cc(Cl)ccc3o2)cc1OC`: in data set [1], the Activity result is “Non-Toxic”. In the case of `COc1ccc(-c2cc3ccccc3o2)cc1`, the Activity result in data set [1] is “Non-Toxic”.

For `COc1cc(SC)cc2cc(-c3ccc(Cl)cc3)oc12`, the Activity entry in data set [1] was “Non-Toxic”. On to `O=[N+]([O-])c1ccc(-c2cc3cc(Cl)ccc3o2)cc1`, for which the Activity result in data set [1] was “Non-Toxic”.

With `COc1cc(CCCI)cc2cc(-c3ccc4c(c3)OCO4)oc12`, the Activity entry in data set [1] was “Non-Toxic”. On to `COc1cc(CCCO)c(Br)c2c(Br)c(-c3ccc4c(c3)OCO4)oc12`, for which, in data set [1], the Activity entry is given as “Non-Toxic”. As to `COc1cccc2cc(-c3ccc([N+](=O)[O-])cc3)oc12`, the Activity result in data set [1] is on record as “Non-Toxic”.

As to `COc1cc(Cl)cc2cc(-c3ccccc3)oc12`, the Activity result in data set [1] is listed as “Non-Toxic”. Same read-out and setting: then `COc1ccc(-c2cc3ccccc3o2)cc1OC`, with “Non-Toxic”.

On to `COc1cc(Cl)cc2cc(-c3ccc(Cl)cc3)oc12`, for which the Activity entry in data set [1] was “Non-Toxic”. Same read-out and setting: then `O=[N+]([O-])c1ccc(-c2cc3cc(Cl)cc(Cl)c3o2)cc1`, with “Non-Toxic”; and `COc1cc(CCCBr)cc2cc(-c3ccc4c(c3)OCO4)oc12`, with “Non-Toxic”; and `COc1cc(SC)cc2cc(-c3ccc(F)cc3)oc12`, with “Non-Toxic”.

For `COc1cc(CCCOC(C)=O)c(C=O)c2cc(-c3ccc4c(c3)OCO4)oc12`, in data set [1], the Activity result was “Non-Toxic”. With `c1ccc2oc(-c3ccc4c(c3)OCO4)cc2c1`, the Activity result in data set [1] is “Non-Toxic”. For `COc1ccccc1-c1cc2cc(Cl)cc(Cl)c2o1`, the Activity result in data set [1] is on record as “Non-Toxic”.

Regarding `COc1cccc2cc(-c3ccccc3)oc12`, in data set [1], the Activity entry is on record as “Non-Toxic”. In the case of `COc1ccc(-c2cc3cc(Br)cc(OC)c3o2)cc1O`, in data set [2], the pEC50 is 4.59. In addition, the “fold change (FC)” value in data set [3] is greater than 0.6. In addition, the Activity result in data set [1] was “Non-Toxic”. For the molecule `COc1cccc(-c2cc3cccc(OC)c3o2)c1`, in data set [1], the Activity entry is given as “Non-Toxic”.

For the molecule `COc1ccc(-c2cc3cc(Cl)cc(Cl)c3o2)cc1OC`, the Activity result in data set [1] is reported as “Non-Toxic”. As to `COc1ccc(-c2cc3cc(Br)cc(OC)c3o2)cc1`, in data set [2], the pEC50 is 4.68. Also, the “fold change (FC)” value in data set [3] is greater than 0.6. The Activity entry in data set [1] was “Non-Toxic”.

Take `COc1cccc(-c2cc3cc(Cl)cc(Cl)c3o2)c1`: in data set [2], the pEC50 is 4.71. Further, the “fold change (FC)” value in data set [3] is given as greater than 0.6. In addition, the Activity entry in data set [1] is “Non-Toxic”. Consider `COc1cc(CCCCl)cc2cc(-c3ccc4c(c3)OCO4)oc12`, for which the “fold change (FC)” value in data set [3] is greater than 0.6. Besides, in data set [1], the Activity entry is “Non-Toxic”. As to `Clc1ccc(-c2cc3cc(Cl)ccc3o2)cc1`, the Activity result in data set [1] was “Non-Toxic”. Same read-out and setting: then `COc1ccccc1-c1cc2cc(Cl)ccc2o1`, with “Non-Toxic”.

Take `COc1ccc(-c2cc3cccc(OC)c3o2)cc1OC`: the Activity entry in data set [1] was “Non-Toxic”. Regarding `COc1ccc(OC)c(-c2cc3cc(SC)cc(OC)c3o2)c1`, the pEC50 in data set [2] was 4.71. For the same molecule, in data set [3], the “fold change (FC)” value is reported as greater than 0.6. Besides, in data set [1], the Activity result was “Non-Toxic”.

Consider `COc1cccc(-c2cc3cc(Br)cc(OC)c3o2)c1`, for which, in data set [3], the “fold change (FC)” value was greater than 0.6. Also, the Activity entry in data set [1] was “Non-Toxic”. As to `COc1ccc(-c2cc3cc(Br)cc(OC)c3o2)cc1OC`, the Activity result in data set [1] is listed as “Non-Toxic”.

For the molecule `COc1cc(CCCOC(=O)c2ccccc2)cc2cc(-c3ccc4c(c3)OCO4)oc12`, in data set [3], the “fold change (FC)” value is on record as greater than 0.6. The Activity entry in data set [1] is reported as “Non-Toxic”.

For `COc1c(Br)c(CCCO)c(Br)c2c(Br)c(-c3ccc4c(c3)OCO4)oc12`, the Activity result in data set [1] is on record as “Non-Toxic”. Same read-out and setting: then `COc1ccc(-c2cc3cc(Cl)cc(Cl)c3o2)cc1`, with “Non-Toxic”. On to `COc1cc(CCCO[C@@H]2O[C@H](CO[C@@H]3O[C@H](CO)[C@@H](O)[C@H](O)[C@H]3O)[C@@H](O)[C@H](O)[C@H]2O)cc2cc(-c3ccc4c(c3)OCO4)oc12`, for which the pEC50 in data set [2] is 4.80. On to `CCCC(=O)OCCCc1cc(OC)c2oc(-c3ccc4c(c3)OCO4)cc2c1` [EGONOLBUTANOATE], for which the Activity result in data set [1] is given as “Non-Toxic”. Take `COc1cc(CCCOC(C)=O)cc2cc(-c3ccc4c(c3)OCO4)oc12` [EGONOL ACETATE]: the Activity result in data set [1] is recorded as “Non-Toxic”. For `COc1cc(Br)cc2cc(-c3ccc([N+](=O)[O-])cc3)oc12`, the pEC50 in data set [2] is 4.51. Moreover, the “fold change (FC)” value in data set [3] is reported as greater than 0.6. For the same molecule, the Activity result in data set [1] is on record as “Non-Toxic”. As for `COc1cccc2cc(-c3ccc4c(c3)OCO4)oc12`, the “fold change (FC)” value in data set [3] is reported as greater than 0.6. Further, the Activity entry in data set [1] is reported as “Non-Toxic”. For the molecule `COc1cc(CCCOC(C)=O)cc2c(C=O)c(-c3ccc4c(c3)OCO4)oc12`, in data set [1], the Activity result is “Non-Toxic”.

For `Clc1cc(Cl)c2oc(-c3ccccc3)cc2c1`, the Activity entry in data set [1] is given as “Non-Toxic”. For `COc1ccc(-c2cc3cccc(OC)c3o2)cc1`, in data set [1], the Activity entry is “Non-Toxic”. Consider `COc1cc(CCCO)cc2cc(-c3ccc4c(c3)OCO4)oc12` [EGONOL], for which the Activity entry in data set [1] was “Non-Toxic”. In the case of `COc1cccc2cc(-c3ccc(Cl)cc3)oc12`, the pEC50 in data set [2] was 4.83. Also, in data set [3], the “fold change (FC)” value is greater than 0.6. Further, in data set [1], the Activity result is on record as “Non-Toxic”.

In the case of `c1ccc(-c2cc3ccccc3o2)cc1`, the pEC50 in data set [2] is 4.81. In addition, in data set [3], the “fold change (FC)” value is listed as greater than 0.6. Also, the Activity entry in data set [1] was “Non-Toxic”. Take `COc1cccc2cc(-c3ccc(F)cc3)oc12`: the Activity entry in data set [1] is on record as “Non-Toxic”. With `COc1cc(-c2cc3cc(Cl)ccc3o2)cc(OC)c1OC`, in data set [2], the negative-log EC50 (pEC50) was 4.53. In addition, the “fold change (FC)” value in data set [3] is recorded as greater than 0.6. The Activity entry in data set [1] is given as “Non-Toxic”. Turning to `Clc1ccc2oc(-c3ccc(OCc4ccccc4)cc3)cc2c1`, the pEC50 in data set [2] was 4.76. Also, the “fold change (FC)” value in data set [3] is given as greater than 0.6. Moreover, the Activity result in data set [1] is listed as “Non-Toxic”.
